According to PubChem BioAssay (NCI):
“And” between values parts separate entries of the source, which are not always exact repeats. Equal values may be shown once.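 Results reflect a 48-hour exposure of cells in 96-well plates to compound at five concentrations. At the GI50, growth is halved. TGI marks complete inhibition of growth.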 Where a SMILES comes first, the peptide text is derived from it. [ ]: non-standard residue; d: D form. The star is where a group is joined. Decanoyl = CCCCCCCCCC(=O)*; Leu(ol) = CC(C)C[C@H](N)CO; Iva = CC[C@](C)(N)C(=O)O; Aib = CC(C)(N)C(=O)O

System: MDA-MB-468 breast
Assay: growth of human tumour cells (NCI), 48 h

Compound	GI50	TGI
CCNCCCn1c2c(c3ccc(F)cc3c1=O)C(=O)c1cc(OC)cnc1-2	139 nM	312 nM
C=CCn1c(SCC(=O)Nc2ccc(C(=O)/C=C/c3cc(OC)c(OC)c(OC)c3)cc2)nnc1-c1ccc(Cl)cc1	3470 nM	26600 nM
Oc1ccc(CSc2nnc(-c3ccc(Cl)cc3)n2-c2ccccc2)c2cccnc12	1190 nM	> 100000 nM
C=C1c2c(C)nn(-c3ccc(OC)cc3)c2N(C)C23C[C@@H]1C1(C)c4c(C)nn(-c5ccc(OC)cc5)c4N(C)C(C)(C[C@H]12)C3 (some centres undefined)	2500 nM	12800 nM
COc1ccc(-c2nnc(COc3ccc(Cl)cc3Cl)o2)cc1OC	7320 nM	54400 nM
CCCCCCCCCC(=O)NC(C)(C)C(=O)N1CCC[C@H]1C(=O)N[C@@H](CC(C)C)C(=O)N[C@@](C)(CC)C(=O)N[C@@H](CCC(N)=O)C(=O)N[C@H](CCC(N)=O)C(=O)NC(C)(C)C(=O)NC(C)(C)C(=O)N[C@@H](CCC(N)=O)C(=O)N[C@H](CC(C)C)C(=O)N[C@H](CO)CC(C)C (Decanoyl-[Aib]PL[Iva]Q[dQ][Aib][Aib]Q[dL][Leu(ol)])	1790 nM	3340 nM
C1=C/COCc2cc(ccc2OCCN2CCCC2)Nc2nccc(n2)-c2cccc(c2)COC/1	396 nM and 562 nM	1480 nM and 2010 nM
COC1=CC(=O)c2c(ccc3ncnc(N)c23)C1=O	1140 nM	2770 nM
C=C1CC2(OC1=O)C(=O)N(C)c1ccc(I)cc12 (centres undefined)	537 nM	2760 nM
COc1ccc(-c2c(-c3cc(OC)c(OC)c(OC)c3)nc3sc(C4CC4)nn23)cc1OC	1900 nM	31400 nM
COC(=O)[C@@H](C)C[C@H](Cc1ccccc1)NC(=O)c1cccc([C@@H](C[C@H](C(C)C)N(C)C(=O)[C@@H](NC(=O)[C@H]2CCCCN2C)C2CC2)OC(C)=O)n1	3.33 nM	33300 nM and > 100000 nM
Cn1c(=O)n(CCCO)c(=O)c2c1nc(Oc1cccc(OC(F)(F)F)c1)n2Cc1ccc(Cl)cc1	12900 nM	29900 nM
CC1(C)CCC2(CC1)N[C@@H](C(=O)N[C@@H]1CC[C@@H](C(N)=O)OC1)[C@H](c1ccnc(Cl)c1F)[C@]21C(=O)Nc2cc(Cl)ccc21	2240 nM	5630 nM
NS(=O)(=O)c1ccc(N=Cc2c(O)[nH]c3ccc4ncsc4c23)cc1	488 nM and 472 nM	1140 nM and 1080 nM
Nc1n[n+](=O)c2ccccc2n1O	19600 nM	67000 nM
O=C(Nc1ccc(-n2cc(-c3ccncc3)c(-c3ccc(O)c(Cl)c3)n2)cc1)c1cc(C(F)(F)F)cc(C(F)(F)F)c1	6060 nM	> 25000 nM
COc1ccc2c(c1)oc1c(C)c3c(c(C)c12)C(=O)N(N)C3=O	> 100000 nM	> 100000 nM
O=c1c2c([nH]c3ccccc13)CCCC2	16700 nM	> 100000 nM
Brc1ccc(SCN(CSc2ccc(Br)cc2)Cc2ccccc2)cc1	6450 nM	30600 nM

Compound	GI50	TGI
COc1cc(/C=C/C(=O)c2ccc(Nc3nc(Nc4ccc(F)cc4)nc(Nc4ccc(Cl)cc4)n3)cc2)cc(OC)c1OC	1340 nM	3750 nM
COc1cc(/C=C/C(=O)Nc2ccc3c(c2)/C(=C\c2cccn2C)C(=O)N3)cc(OC)c1OC	3390 nM	25200 nM
C[CH2][Sn]([CH2]C)([O]C(=O)c1cccc(OC)c1)[O][Sn]([CH2]C)([CH2]C)[O]C(=O)c1cccc(OC)c1	5530 nM	20800 nM
CCCSc1ccc2nc(NC(=O)OC)[nH]c2c1	210 nM	702 nM
C#Cc1ccc(NC(=O)c2ccc(/C=C/C(=O)c3nccn3C)cc2)c(F)c1	1240 nM	4420 nM
COc1ncc(-c2ccc3nccc(C#CCCCCC(=O)O)c3c2)cc1NS(=O)(=O)c1ccc(F)cc1F	132 nM	1900 nM
CCOc1ccc(C(=O)Nc2ncc(Cc3ccc(F)cc3)s2)cc1	266 nM	> 100000 nM
O=C(Nc1cccc(-n2ccc3c(NC(=O)c4ccccc4)nccc32)c1)Nc1ccc(Cl)c(C(F)(F)F)c1	257 nM	3360 nM
Cc1c([C@H](C(Cl)Cl)[C@H](O)[C@H]2C[C@H](C)C(=O)O2)ccc2c1C(=O)[C@H]1[C@H]2C[C@@H](Br)[C@@]23O[C@@H](CO[C@H]2O)CC13C (some centres undefined)	129 nM	922 nM
CCOC(=O)c1ccc2c(c1)[n+](=O)c(C(=O)C1CCCS1)c(C(F)(F)F)n2[O-] (centres undefined)	250 nM	967 nM
O=C(NC(=S)Nc1ccccn1)c1ccccc1	12500 nM	> 100000 nM
N#C/C(=C\c1cn(Cc2ccccc2)c2ccccc12)C(=O)Nc1ncc(Cc2ccccc2Cl)s1	1840 nM	4680 nM
O=C(/C=C/c1cc2ccccc2[nH]c1=O)c1ccc(Cl)cc1	17400 nM	35200 nM
O=[N+]([O-])c1ccc(C(Br)c2ccc([N+](=O)[O-])cc2)cc1	11500 nM	25900 nM
COc1cccc2c1C(=O)c1c(O)c3c(c(O)c1C2=O)CC(O)(/C(C)=N/NC(=O)CCCCC(=O)N/N=C(\C)C1(O)Cc2c(O)c4c(c(O)c2C(OC2CC(N)C(O)C(C)O2)C1)C(=O)c1c(OC)cccc1C4=O)CC3OC1CC(N)C(O)C(C)O1 (centres undefined)	93.5 nM	251 nM
COc1cc(C(=O)c2c(-c3ccccc3)oc3c(OC)cccc23)cc(OC)c1O	936 nM	7220 nM
C=C1C(=O)O[C@H]2[C@H]1CC/C(CNC(=O)c1cccc3ccccc13)=C\CC[C@@]1(C)O[C@@H]21	1380 nM	4240 nM
N#Cc1c(-c2ccc(Cl)cc2)csc1NC(=O)Nc1ccc(Cl)c(C(F)(F)F)c1	186 nM	1510 nM
